Assays:
[1] = target: T1, human ornithine decarboxylase (ODC) (Homo sapiens, UniProt P11926); assay: Inhibition of the activity of human ornithine decarboxylase by continuous spectrophotometry; format: biochemical; conditions: isolated component, FIG. 9
T1 sequence (P11926 1-461): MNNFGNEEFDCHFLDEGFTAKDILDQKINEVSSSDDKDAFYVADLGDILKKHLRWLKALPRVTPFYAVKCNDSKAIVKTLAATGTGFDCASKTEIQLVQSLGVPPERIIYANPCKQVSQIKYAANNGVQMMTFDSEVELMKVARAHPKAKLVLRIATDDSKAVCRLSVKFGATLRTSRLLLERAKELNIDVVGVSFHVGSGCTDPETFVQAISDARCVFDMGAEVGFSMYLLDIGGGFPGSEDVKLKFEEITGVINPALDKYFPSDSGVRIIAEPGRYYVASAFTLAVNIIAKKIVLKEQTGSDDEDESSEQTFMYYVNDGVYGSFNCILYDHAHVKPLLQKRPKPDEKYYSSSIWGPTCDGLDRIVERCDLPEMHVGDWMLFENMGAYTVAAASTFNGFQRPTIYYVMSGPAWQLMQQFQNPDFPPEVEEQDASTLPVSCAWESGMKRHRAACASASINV
Protocol: In this example, inhibition of the activity of human ornithine decarboxylase (ODC) was tested by continuous spectrophotometry. The standard ODC spectrophotometric reaction composition contained 30 mM Tris-HCl (pH 7.8), 10 mM ornithine, and 0.2 mM pyridoxal 5′-phosphate (PLP), together with 12.5 mM phosphoenolpyruvate, 0.4 unit/mL […] of microbes, 4.1 unit/mL malate dehydrogenase (malate dehydrogenase of mammals), and 0.6 mM NADH analog, with the final volume being 0.5 mL. The test mixture was added with a predetermined amount of an Acacia confusa extract sample as an inhibitor and then added with an appropriate amount of ODC to start the reaction. Once the enzyme ODC was added into the reaction mixture, the decrease in absorbance at 405 nm was continuously tracked with Lambda 25 UV-visible spectrophotometer (PerkinElmer Life Sciences). By this test method, 1 mole of CO2 was generated under the test conditions, and 1 mole of NADH analog was oxidized. The unit of the enzyme ODC was defined as the amount of the enzyme that is required to catalyze the generation of 1 mole of NAD per minute. For the calculation, 2410 M^−1cm^−1 was used as the molar absorptivity of the NADH analog. […]

[2] = target: human peptidylarginine deiminase 4 (PAD4) (Homo sapiens, UniProt Q9UM07); assay: Inhibition of the activity of human peptidylarginine deiminase 4 by continuous spectrophotometry; format: biochemical; conditions: human PAD4, isolated component, FIG. 10
Protocol: In this example, inhibition of the activity of human peptidylarginine deiminase 4 (PAD4) was tested by continuous spectrophotometry. The standard PAD4 spectrophotometric reaction mixture contained 10 mM BAEE (benzoyl-L-arginine ethyl ester), 10 mM CaCl2), 2.5 mM dithiothreitol (DTT), 8.5 mM α-ketoglutarate (α-KG), 0.22 mM NADH, and 3 U glutamate dehydrogenase (GDH). 100 mM Tris-HCl (pH 7.5) was added into a 1-mL colorimetric tube, followed by a predetermined amount of an Acacia confusa extract sample as an inhibitor. The temperature was controlled at 37° C. An appropriate amount of PAD4 was then added into the test mixture to start the reaction. Once the enzyme PAD4 was added into the reaction mixture, the decrease in absorbance at 340 nm was continuously recorded with a spectrophotometer (Beckman DU 7500). The unit of the enzyme PAD4 was defined as the amount reduced in order to catalyze the conversion of 1 μmol of NADH to NAD^+ per minute. For the calculation of enzyme activity, 6220 M^−1cm^−1 was used as the molar absorptivity of the NADH.
Referring to the content of Example 3 to detect the inhibiting activity of peptidylarginine deiminase 4 (PAD4) of components of the Acacia confusa ethyl acetate extract: Melanoxetin, Okanin and Transilitin, the results are shown in FIG. 10.

Chain of human peptidylarginine deiminase 4 (PAD4) (Q9UM07 whole entry): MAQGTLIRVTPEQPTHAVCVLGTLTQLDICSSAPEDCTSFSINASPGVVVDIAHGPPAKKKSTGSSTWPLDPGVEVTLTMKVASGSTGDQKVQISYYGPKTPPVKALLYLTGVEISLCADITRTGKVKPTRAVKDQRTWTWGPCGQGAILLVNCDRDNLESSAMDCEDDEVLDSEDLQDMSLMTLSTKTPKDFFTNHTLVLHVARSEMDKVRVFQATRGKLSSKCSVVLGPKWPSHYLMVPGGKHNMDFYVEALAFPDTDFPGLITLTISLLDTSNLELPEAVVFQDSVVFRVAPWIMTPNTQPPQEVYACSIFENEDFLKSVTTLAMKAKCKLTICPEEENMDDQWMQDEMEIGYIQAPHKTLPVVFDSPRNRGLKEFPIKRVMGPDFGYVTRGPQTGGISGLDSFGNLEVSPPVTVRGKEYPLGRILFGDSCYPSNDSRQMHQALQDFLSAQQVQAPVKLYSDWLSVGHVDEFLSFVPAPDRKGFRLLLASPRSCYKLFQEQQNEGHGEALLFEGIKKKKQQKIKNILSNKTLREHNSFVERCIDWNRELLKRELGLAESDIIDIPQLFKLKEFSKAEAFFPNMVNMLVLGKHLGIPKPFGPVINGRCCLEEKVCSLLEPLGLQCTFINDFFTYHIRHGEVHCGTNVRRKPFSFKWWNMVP

IC50 [1]: 8.2 ± 2.1 µM
IC50 [2]: 89.2 ± 8.3 µM
SMILES: O=C(/C=C/c1ccc(O)c(O)c1)c1ccc(O)c(O)c1O [Okanin, 3,4,2′,3′,4′-pentahydroxy-trans-chalcone]
